# What was measured:
# CAIX [1] = molecular target: T1, CAIX (Homo sapiens, UniProt Q16790); assay: Competitive fluorescence polarization assay for [113/115In]XYIMSR-01; assay type: binding; design: purchased R&D Systems; settings: for IC50: 100 nM CAIX, 80 nM FITC-labeled 8, read-out: IC50, inhibition of fluorescence polarization of FITC labeled 8; for binding affinity to CAIX (in words): competitive fluorescence polarization
# Text: (§1) General Procedures. Solvents and chemicals obtained from commercial sources were of analytical grade or better and used without further purification. Fmoc-protected azidolysine, HBTU, and N-α-fmoc-L-aspartic acid α-tert-butyl ester were purchased from Chem Impex International, Inc. (Wooddale, Ill.). Carrier-free [^111In]InCl3 was purchased from MDS Nordion (Ottawa, ON, Canada). DOTA-NHS-ester (1,4,7,10-tetraazacyclododecane-1,4,7,10-tetraacetic acid mono N-hydroxysuccinimide ester) was purchased from Macrocyclics, Inc. (Dallas, Tex.). Indium (III) nitrate, triethylsilane (Et3SiH), N,N-diisopropylethylamine (DIEA), triethylamine (TEA), piperidine, 4,4-bis(4-hydroxyphenyl)valeric acid, copper iodide (CuI), and tris[(1-benzyl-1H-1,2,3-triazol-4-yl)methyl]amine (TBTA) were purchased from Sigma-Aldrich (Saint Louis, Mo.). Pre-loaded O-bis-(aminoethyl)ethylene glycol on trityl resin was purchased from EMD Millipore (Billerica, Mass.). Flash chromatography was performed using MP SiliTech 32-63 D 60 Å silica gel purchased from Bodman (Aston, Pa.). Recombinant human CAIX was purchased from R&D Systems (Minneapolis, Minn.). 1H NMR spectra were recorded on a Bruker Ultrashield 500 MHz spectrometer. Chemical shifts (δ) were reported in ppm downfield by reference to proton resonances resulting from incomplete deuteration of the NMR solvent. ESI mass spectra were obtained on a Bruker Daltonics Esquire 3000 Plus spectrometer (Billerica, Mass.).
# Competitive Fluorescence Polarization Assay for [^113/115In]XYIMSR-01. Fluorescence polarization (FP) experiments were performed in 21 μL of the assay buffer (12.5 mM Tris-HCl, pH 7.5, 75 mM NaCl) in black flat bottom 384-well microplates (Corning, Inc., New York, N.Y.) The FP reaction employed 100 nM of purified CAIX (R&D systems, Minneapolis, Minn.) and 80 nM FITC-labeled 8 (Wichert, et al., 2015) within the assay buffer. The FP values were measured as mP units using the Victor3 multi-label plate reader equipped with excitation (485 nm) and emission (535 nm) filters (Perkin Elmer, Waltham, Mass.). 100 nM CAIX was incubated with serially diluted (from 1 μM to 61 fM) concentrations of the three targeting molecules, 2, XYIMSR-01, and [^113/115In]XYIMSR-01 for 30 min at room temperature in 384-well plates. 80 nM 8 was added to each well and the reaction was incubated for 30 min at room temperature followed by FP measurement. Experiments were carried out in triplicate and the concentration resulting in 50% response (IC50) was calculated in GraphPad Prism 5 (GraphPad Software, La Jolla, Calif.) using the sigmoidal dose-response regression function.
# CAIX [2] = molecular target: T1, CAIX; assay: Competitive fluorescence polarization assay for [Al19F]XYIMSR-04, [63/65Cu]XYIMSR-06 and [175Lu]XYIMSR-01; assay type: binding; design: purchased R&D Systems; settings: 100 nM CAIX, 80 nM FITC-labeled ligand; read-out: IC50, competitive fluorescence polarization (similar method)
# Text: as §1
# Competitive Fluorescence Polarization Assay for [Al^19F]XYIMSR-04, [^63/65Cu]XYIMSR-06, and [^175Lu]XYIMSR-01. Fluorescence polarization (FP) experiments were performed in 21 μL of the assay buffer (12.5 mM Tris-HCl, pH 7.5, 75 mM NaCl) in transparent flat bottom 384 well Small Volume™ LoBase Microplates (Greiner Bio-One, Frickenhausen Germany). The FP reaction employed 100 nM of purified CAIX (R&D systems, Minneapolis, Minn.) and 80 nM FITC-labeled ligand within the assay buffer. The FP values were measured as mP units using the Safire2™ plate reader (Tecan, Morrisville, N.C.) with excitation at 475 nm and emission at 532 nm emission. 100 nM CAIX was incubated with serially diluted (from 8 μM to 488.2 fM) concentrations of the […] targeting molecules, 2, [Al^19F]XYIMSR-04, [^63/65Cu]XYIMSR-06 and [^175Lu]XYIMSR-01 for 30 min at room temperature in 384 well plates. 80 nM FITC-labeled ligand was added to each well and the reaction was incubated for 30 min at room temperature followed by FP measurements. Experiments were carried out in triplicate and the concentration resulting in 50% response (IC50) was calculated in GraphPad Prism 5 (GraphPad Software, La Jolla, Calif.) using the sigmoidal dose-response regression function.
Compound,IC50 (CAIX [1]),binding affinity to CAIX (in words) (CAIX [1]),IC50 (CAIX [2])
"CC(CCC(=O)N[C@@H](CC(=O)N[C@@H](CC(=O)N[C@@H](CCCCn1cc(CCCC(=O)Nc2nnc(S(N)(=O)=O)s2)nn1)C(=O)NCCOCCOCCNC(=O)CN1CCN(CC(=O)O)CCN(CC(=O)O)CCN(CC(=O)O)CC1)C(=O)O)C(=O)O)(c1ccc(O)cc1)c1ccc(O)cc1 [XYIMSR-01, 2,2′,2″-(10-((14S,18S,22S)-18,22-dicarboxy-27,27-bis(4-hydroxyphenyl)-2,13,16,20,24-pentaoxo-14-(4-(4-(4-oxo-4-((5-sulfamoyl-1,3,4-thiadiazol-2-yl)amino)butyl)-1H-1,2,3-triazol-1-yl)butyl)-6,9-dioxa-3,12,15,19,23-pentaazaoctacosyl)-1,4,7,10-tetraazacyclododecane-1,4,7-triyl)triacetic acid]",67 nM,high binding affinity,
"CC(CCC(=O)N[C@@H](CC(=O)N[C@@H](CC(=O)N[C@@H](CCCCn1cc(CCCC(=O)Nc2nnc(S(N)(=O)=O)s2)nn1)C(=O)NCCOCCOCCNC(=O)CN1CCN2CCN(CC1)CC(=O)[O][Al]([F])[O]C(=O)C2)C(=O)O)C(=O)O)(c1ccc(O)cc1)c1ccc(O)cc1 [[Al^19F]XYIMSR-04, [Al^19F] 2,2′-(7-((14S,18S,22S)-18,22-dicarboxy-27,27-bis(4-hydroxyphenyl)-2,13,16,20,24-pentaoxo-14-(4-(4-(4-oxo-4-((5-sulfamoyl-1,3,4-thiadiazol-2-yl)amino)butyl)-1H-1,2,3-triazol-1-yl)butyl)-6,9-dioxa-3,12,15,19,23-pentaazaoctacosyl)-1,4,7-triazonane-1,4-diyl)diacetic acid]",,,96.7 ± 3.3 nM
"CC(CCC(=O)N[C@@H](CC(=O)N[C@@H](CC(=O)N[C@@H](CCCCn1cc(CCCC(=O)Nc2nnc(S(N)(=O)=O)s2)nn1)C(=O)NCCOCCOCCNC(=S)Nc1ccc(CC2CN(CC(=O)O)CCN(CC(=O)O)CCN2CC(=O)O)cc1)C(=O)O)C(=O)O)(c1ccc(O)cc1)c1ccc(O)cc1.[Cu] (stereo partly drawn) [[^63/65Cu]XYIMSR-06, [^63/65Cu]2,2′,2″-(2-(4-(3-((11S,15S,19S)-15,19-dicarboxy-24,24-bis(4-hydroxyphenyl)-10,13,17,21-tetraoxo-11-(4-(4-(4-oxo-4-((5-sulfamoyl-1,3,4-thiadiazol-2-yl)amino)butyl)-1H-1,2,3-triazol-1-yl)butyl)-3,6-dioxa-9,12,16,20-tetraazapentacosyl)thioureido)benzyl)-1,4,7-triazonane-1,4,7-triyl)triacetic acid]",,,156 ± 4.3 nM
CC(CCC(=O)NC(CC(=O)NC(CC(=O)NC(CCCCn1cc(CCCC(=O)Nc2nnc(S(N)(=O)=O)s2)nn1)C(=O)NCCOCCOCCNC(=O)CN1CCN(CC(=O)O)CCN(CC(=O)O)CCN(CC(=O)O)CC1)C(=O)O)C(=O)O)(c1ccc(O)cc1)c1ccc(O)cc1 (stereo not shown) [[^113/115In]XYIMSR-01],108 nM,high binding affinity,
"CC(CCC(=O)N[C@@H](CC(=O)N[C@@H](CC(=O)N[C@@H](CCCCn1cc(CCCC(=O)Nc2nnc(S(N)(=O)=O)s2)nn1)C(=O)NCCOCCOCCNC(=O)CN1CCN(CC(=O)O)CCN(CC(=O)O)CCN(CC(=O)O)CC1)C(=O)O)C(=O)O)(c1ccc(O)cc1)c1ccc(O)cc1.[Lu] [[^175Lu]XYIMSR-01, [^175Lu]2,2′,2″-(10-((14S,18S,22S)-18,22-dicarboxy-27,27-bis(4-hydroxyphenyl)-2,13,16,20,24-pentaoxo-14-(4-(4-(4-oxo-4-((5-sulfamoyl-1,3,4-thiadiazol-2-yl)amino)butyl)-1H-1,2,3-triazol-1-yl)butyl)-6,9-dioxa-3,12,15,19,23-pentaazaoctacosyl)-1,4,7,10-tetraazacyclododecane-1,4,7-triyl)triacetic acid]",,,122 ± 3.8 nM

# — patent US20190192699A1, “NUCLEAR IMAGING AND RADIOTHERAPEUTICS AGENTS TARGETING CARBONIC ANHYDRASE IX AND USES THEREOF” (THE JOHNS HOPKINS UNIVERSITY, priority 2016, published 2019)
